The data set in a line: physchem. It is filed as physicochemical. The procedure:
Prior to the testing of solubility and stability of a peptide batch, its content was determined. Therefore, two parameters were investigated, its purity (HPLC-UV) and the amount of salt load of the batch (ion chromatography). Since synthesized peptides contain primarily trifluoracetate anions, only anion chromatography was performed. The content was then calculated based on the assumption that peptide-related impurities are detected at the same UV-absorption rate as the target peptide, as well as that cations are not present in the sample.
Therefore, solutions from solid samples were prepared in different buffer systems with a concentration of 1.0 mg/mL compound based on the previously determined content. HPLC-UV was performed after 2 h of gentle agitation from the supernatant, which was obtained by 20 min of centrifugation at 4000 rpm. […] This analysis also served as t0 for the stability testing.
Instrument: Agilent 1100, column: X-Bridge C18 3.5 μm 2.1×150 mm (Waters), eluent: A: H20+500 ppm TFA/B: Methanol, flow: 0.55 ml/min, gradient: 0-5 min: 10-60% B; 5-15 min: 60-99% B; detection: 214 nm.

In brackets after ≈: the same amount, converted by molar mass. *1 amine or outer side, *2 acyl side, *3 side chain or, on linkers, in order; H or OH if unused. Where a SMILES comes first, the peptide text is derived from it. Side-chain parts run from the residue outwards. [ ]: non-standard residue; d: D form. The star is where a group is joined. γGlu = O=C(O)[C@H](CCC(=O)[*:2])N[*:1]; Palmitoyl = CCCCCCCCCCCCCCCC(=O)*

By solubility is commonly meant the concentration that dissolves in the medium under given conditions.

As to `CCCCCCCCCCCCCCCC(=O)N[C@@H](CCC(=O)NCCCC[C@H](NC(=O)[C@H](CO)NC(=O)[C@@H]1CCCN1C(=O)[C@@H]1CCCN1C(=O)[C@@H]1CCCN1C(=O)[C@H](C)NC(=O)CNC(=O)[C@H](CO)NC(=O)[C@H](CO)NC(=O)[C@@H]1CCCN1C(=O)CNC(=O)[C@@H](C)NC(=O)[C@H](CCCNC(=N)N)NC(=O)[C@H](CCCCN)NC(=O)[C@H](CC(C)C)NC(=O)[C@H](Cc1c[nH]c2ccccc12)NC(=O)[C@H](CCC(=O)O)NC(=O)[C@@H](NC(=O)[C@H](Cc1ccccc1)NC(=O)[C@H](CC(=O)O)NC(=O)[C@H](CCC(N)=O)NC(=O)[C@H](C)NC(=O)[C@H](CCCNC(=N)N)NC(=O)[C@H](CCCNC(=N)N)NC(=O)[C@H](CO)NC(=O)[C@H](CCC(=O)O)NC(=O)[C@H](CCSC)NC(=O)[C@H](CCC(N)=O)NC(=O)[C@H](CCCCN)NC(=O)[C@H](CO)NC(=O)[C@H](CC(C)C)NC(=O)[C@H](CC(=O)O)NC(=O)[C@H](CO)NC(=O)[C@@H](NC(=O)[C@H](Cc1ccccc1)NC(=O)[C@@H](NC(=O)CNC(=O)[C@H](CCC(N)=O)NC(=O)[C@@H](CO)NC(=O)[C@@H](N)Cc1c[nH]cn1)[C@@H](C)O)[C@@H](C)O)[C@@H](C)CC)C(N)=O)C(=O)O` [(76)] (H-H[dS]QGTFTSDLSKQMESRRAQDFIEWLKR[dA]GPSSGAPPPSK([γGlu-Palmitoyl])-NH2), the solubility at 2 h was 952 µg/mL (≈ 199 µM) (pH 4.5) and above 1000 µg/mL (pH 7.4).

On to `CCCCCCCCCCCCCCCC(=O)N[C@@H](CCC(=O)NCCCC[C@H](NC(=O)[C@H](CO)NC(=O)[C@@H]1CCCN1C(=O)[C@@H]1CCCN1C(=O)[C@@H]1CCCN1C(=O)[C@H](C)NC(=O)CNC(=O)[C@H](CO)NC(=O)[C@H](CO)NC(=O)[C@@H]1CCCN1C(=O)CNC(=O)CNC(=O)[C@H](CCCCN)NC(=O)[C@H](CCCCN)NC(=O)[C@H](CC(C)C)NC(=O)[C@H](Cc1c[nH]c2ccccc12)NC(=O)[C@H](CCC(=O)O)NC(=O)[C@@H](NC(=O)[C@H](Cc1ccccc1)NC(=O)[C@H](CC(=O)O)NC(=O)[C@H](CCC(N)=O)NC(=O)[C@H](C)NC(=O)[C@H](CCCNC(=N)N)NC(=O)[C@H](CCCNC(=N)N)NC(=O)[C@H](CO)NC(=O)[C@H](CCC(=O)O)NC(=O)[C@H](CCSC)NC(=O)[C@H](CCC(N)=O)NC(=O)[C@H](CCCCN)NC(=O)[C@H](CO)NC(=O)[C@H](CC(C)C)NC(=O)[C@H](CC(=O)O)NC(=O)[C@H](CO)NC(=O)[C@@H](NC(=O)[C@H](Cc1ccccc1)NC(=O)[C@@H](NC(=O)CNC(=O)[C@H](CCC(N)=O)NC(=O)[C@@H](CO)NC(=O)[C@@H](N)Cc1c[nH]cn1)[C@@H](C)O)[C@@H](C)O)[C@@H](C)CC)C(N)=O)C(=O)O` [(77)] (H-H[dS]QGTFTSDLSKQMESRRAQDFIEWLKKGGPSSGAPPPSK([γGlu-Palmitoyl])-NH2), for which the solubility at 2 h is above 1000 µg/mL (pH 4.5) and above 1000 µg/mL (pH 7.4).

As for `CCCCCCCCCCCCCCCC(=O)N[C@@H](CCC(=O)NCCCC[C@H](NC(=O)[C@H](CO)NC(=O)[C@@H]1CCCN1C(=O)[C@@H]1CCCN1C(=O)[C@@H]1CCCN1C(=O)[C@H](C)NC(=O)CNC(=O)[C@H](CO)NC(=O)[C@H](CO)NC(=O)[C@@H]1CCCN1C(=O)CNC(=O)CNC(=O)[C@H](CC(N)=O)NC(=O)[C@H](CCCCN)NC(=O)[C@H](CC(C)C)NC(=O)[C@H](Cc1c[nH]c2ccccc12)NC(=O)[C@H](CCC(=O)O)NC(=O)[C@@H](NC(=O)[C@H](Cc1ccccc1)NC(=O)[C@H](CC(=O)O)NC(=O)[C@H](CCCCN)NC(=O)[C@H](C)NC(=O)[C@H](CCCNC(=N)N)NC(=O)[C@H](CCCNC(=N)N)NC(=O)[C@H](CCC(=O)O)NC(=O)[C@H](CC(=O)O)NC(=O)[C@H](CCSC)NC(=O)[C@H](CCC(N)=O)NC(=O)[C@H](CCCCN)NC(=O)[C@H](CO)NC(=O)[C@H](CC(C)C)NC(=O)[C@H](CC(=O)O)NC(=O)[C@H](CO)NC(=O)[C@@H](NC(=O)[C@H](Cc1ccccc1)NC(=O)[C@@H](NC(=O)CNC(=O)[C@H](CCC(N)=O)NC(=O)[C@@H](CO)NC(=O)[C@@H](N)Cc1c[nH]cn1)[C@@H](C)O)[C@@H](C)O)[C@@H](C)CC)C(N)=O)C(=O)O` [(70)] (H-H[dS]QGTFTSDLSKQMDERRAKDFIEWLKNGGPSSGAPPPSK([γGlu-Palmitoyl])-NH2), the solubility at 2 h by setting is: (pH 4.5) above 1000 µg/mL; (pH 7.4) above 1000 µg/mL.

Take `CCCCCCCCCCCCCCCC(=O)N[C@@H](CCC(=O)NCCCC[C@H](NC(=O)[C@H](CO)NC(=O)[C@@H]1CCCN1C(=O)[C@@H]1CCCN1C(=O)[C@@H]1CCCN1C(=O)[C@H](C)NC(=O)CNC(=O)[C@H](CO)NC(=O)[C@H](CO)NC(=O)[C@@H]1CCCN1C(=O)CNC(=O)CNC(=O)[C@H](C)NC(=O)[C@H](CCCCN)NC(=O)[C@H](CC(C)C)NC(=O)[C@H](Cc1c[nH]c2ccccc12)NC(=O)[C@H](CCC(=O)O)NC(=O)[C@@H](NC(=O)[C@H](Cc1ccccc1)NC(=O)[C@H](CC(=O)O)NC(=O)[C@H](CCC(N)=O)NC(=O)[C@H](C)NC(=O)[C@H](CCCNC(=N)N)NC(=O)[C@H](CCCNC(=N)N)NC(=O)[C@H](CO)NC(=O)[C@H](CCC(=O)O)NC(=O)[C@H](CCSC)NC(=O)[C@H](CCC(N)=O)NC(=O)[C@H](CCCCN)NC(=O)[C@H](CO)NC(=O)[C@H](CC(C)C)NC(=O)[C@H](CC(=O)O)NC(=O)[C@H](CO)NC(=O)[C@@H](NC(=O)[C@H](Cc1ccccc1)NC(=O)[C@@H](NC(=O)CNC(=O)[C@H](CCC(N)=O)NC(=O)[C@@H](CO)NC(=O)[C@@H](N)Cc1c[nH]cn1)[C@@H](C)O)[C@@H](C)O)[C@@H](C)CC)C(N)=O)C(=O)O` [(63)] (H-H[dS]QGTFTSDLSKQMESRRAQDFIEWLKAGGPSSGAPPPSK([γGlu-Palmitoyl])-NH2): the solubility at 2 h runs as follows: (pH 4.5) above 1000 µg/mL; (pH 7.4) above 1000 µg/mL.

Turning to `CCCCCCCCCCCCCCCC(=O)N[C@@H](CCC(=O)NCCCC[C@H](NC(=O)[C@H](CO)NC(=O)[C@@H]1CCCN1C(=O)[C@@H]1CCCN1C(=O)[C@@H]1CCCN1C(=O)[C@H](C)NC(=O)CNC(=O)[C@H](CO)NC(=O)[C@H](CO)NC(=O)[C@@H]1CCCN1C(=O)CNC(=O)CNC(=O)[C@H](C)NC(=O)[C@H](CCCCN)NC(=O)[C@H](CC(C)C)NC(=O)[C@H](Cc1c[nH]c2ccccc12)NC(=O)[C@H](CCC(=O)O)NC(=O)[C@@H](NC(=O)[C@H](Cc1ccccc1)NC(=O)[C@H](CC(=O)O)NC(=O)[C@H](CCC(N)=O)NC(=O)[C@H](C)NC(=O)[C@H](CCCNC(=N)N)NC(=O)[C@H](CCCNC(=N)N)NC(=O)[C@H](CO)NC(=O)[C@H](CC(=O)O)NC(=O)[C@H](CCSC)NC(=O)[C@H](CCC(N)=O)NC(=O)[C@H](CCCCN)NC(=O)[C@H](CO)NC(=O)[C@H](CC(C)C)NC(=O)[C@H](CC(=O)O)NC(=O)[C@H](CO)NC(=O)[C@@H](NC(=O)[C@H](Cc1ccccc1)NC(=O)[C@@H](NC(=O)CNC(=O)[C@H](CCC(N)=O)NC(=O)[C@@H](CO)NC(=O)[C@@H](N)Cc1c[nH]cn1)[C@@H](C)O)[C@@H](C)O)[C@@H](C)CC)C(N)=O)C(=O)O` [(60)] (H-H[dS]QGTFTSDLSKQMDSRRAQDFIEWLKAGGPSSGAPPPSK([γGlu-Palmitoyl])-NH2), the solubility at 2 h reads like this: (pH 4.5) above 1000 µg/mL; (pH 7.4) above 1000 µg/mL.
